The values below come from US7635703B2, “Imidazole substituted pyrazole kinase inhibitors” (Janssen Pharmaceutica N.V., priority 2006, dated 2009).

The test system of one experiment is HCT-116 colon carcinoma. In words: Cell proliferation inhibition assay (14C-thymidine incorporation), HCT-116. It is filed as cell-based. Particulars: Homo sapiens, HCT-116 cells. From the text: (§1) The ability of a test compound to inhibit unregulated cell proliferation may be determined by measuring incorporation of ^14C-labelled thymidine into newly synthesized DNA within cell lines derived from carcinomas originating from several tissues. Accordingly, the anti-proliferative effect of a compound on cells with a variety of phenotypes may be determined.
(§2) Carcinoma cell lines include those such as HeLa cervical adenocarcinoma (American Type Culture Collection (ATCC), Virginia, Cat. #CCL-2), A375 malignant melanoma (ATCC CRL-1619), and HCT-116 colon carcinoma (CCL-247).
(§3) The carcinoma cells are trypsinized and counted. The cells (3000-8000 count) are added to each well of a 96-well CytoStar tissue culture treated scintillating microplate (Amersham #RPNQ0160) in complete medium (100 μL) and the plate is then incubated in complete medium for 24 hrs at 37° C. in an inert atmosphere containing 5% CO2. Test compound (1 μL) in 100% DMSO is added to the plate test-wells with DMSO only added to control-wells. The plate is incubated in complete medium for a second 24 hr period at 37° C. in an atmosphere containing 5% CO2.
(§4) An aliquot of a solution of Methyl ^14C-thymidine (56 mC/mmol) (NEN #NEC568 or Amersham #CFA532) and complete medium (20 uL to provide 0.2 μCi/well) is then added to each well and the plate is incubated for a third 24 hr period at 37° C. in an atmosphere containing 5% CO2. The plate contents are then discarded, the plate is washed twice with PBS (200 μL) and then PBS (200 μL) is added to each well. The plate is sealed and the degree of methyl ^14C-thymidine incorporation is quantified on a Packard Top Count.
(§5) A maximum and minimum signal for the assay was determined on each plate. The percent inhibition of a test compound was calculated according to the formula: […]
(§6) For a series of test concentrations, the IC50 was derived by graphing percent inhibition against the log of the concentrations tested for a given compound with results shown in Table 3.

Experiment [1] concerns the target T1, rat VEGF-R2 kinase domain (polyhistidine fusion, amino acids 786 to 1343) (Rattus norvegicus, UniProt O08775).
T1 construct: amino acids 786 to 1343 of the rat VEGF-R2 kinase domain; polyhistidine (N)
As to the kind of experiment: VEGFR2 screening assay (33P-ATP FlashPlate). It is filed as biochemical. Particulars: 10 μM ATP, 1 hr at 30° C. Here is the method: (§7) 70 μL of the kinase reaction mixture was dispensed into the well of a streptavidin coated FlashPlate™ (Cat. # SMP103, NEN, Boston, Mass.).
(§8) Test compound stock in 100% DMSO (1 μL) was added to the wells resulting in a final concentration of 1% DMSO in the reaction with a 100 μL final reaction volume. Each enzyme was diluted in 50 mM Tris-HCl pH=8.0, 0.1% BSA and 30 μL was added to each well to initiate the reaction. The reaction was incubated for one hour at 30° C. At the end of the 1 hr incubation, the reaction was terminated by aspirating the mixture from the plate and washing the wells twice with PBS containing 100 mM EDTA. The biotinylated peptide substrate became immobilized on the Flashplate™ and the incorporation of ^33P-γ-ATP was measured by reading the plate on a scintillation counter. Inhibition of the enzymatic activity was measured by observing a reduced amount of ^33P-γ-ATP incorporated into the immobilized peptide.
The assay used 150 ng of the N-terminal biotinylated peptide biotin-[…]-amide (VEGF-R2) per well.
as §5

Experiment [2] addresses T2, murine Aurora-A (polyhistidine fusion, full length) (Mus musculus, UniProt P97477).
T2 construct: followed by the full length protein encoding the murine Aurora-A; polyhistidine (N); made in house; host or cells: sf9 insect cells
T2 sequence (P97477 1-395): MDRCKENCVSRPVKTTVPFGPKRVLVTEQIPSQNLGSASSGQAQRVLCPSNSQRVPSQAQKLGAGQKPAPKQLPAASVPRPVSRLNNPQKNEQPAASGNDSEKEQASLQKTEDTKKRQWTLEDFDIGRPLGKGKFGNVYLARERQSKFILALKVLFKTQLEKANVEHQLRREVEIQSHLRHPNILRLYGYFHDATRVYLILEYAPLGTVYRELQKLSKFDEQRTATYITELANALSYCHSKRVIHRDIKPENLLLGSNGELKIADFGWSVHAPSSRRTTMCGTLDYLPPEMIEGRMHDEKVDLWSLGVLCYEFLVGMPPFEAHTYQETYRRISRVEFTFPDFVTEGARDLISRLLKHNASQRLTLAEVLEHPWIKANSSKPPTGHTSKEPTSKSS
As to the kind of experiment: Aurora-A screening assay (33P-ATP FlashPlate). It is filed as biochemical. Particulars: 10 μM ATP, 1 hr at 30° C. On the procedure:
as §7, §8
Aurora-A is a fusion protein containing a polyhistidine tag at the N terminus followed by the full length protein encoding the murine Aurora-A (Accession number GB BC014711) expressed and purified from sf9 insect cells. The assay used 400 ng of the N-terminal biotinylated peptide biotin-[…]-amide (Aurora-A) per well.
as §5

Experiment [3] has as its target T3, HER2 (GST/HIS6 fusion, amino acids 679 to 1255 of HER-2) (Homo sapiens, UniProt P04626).
T3 construct: GST (Glutathione-S-Transferase) (N); HIS6 (N); thrombin cleavage site (N); purchased Proqinase, Freiburg, Germany
As to the kind of experiment: HER2 screening assay (33P-ATP FlashPlate). The following applies: 10 μM ATP, 1 hr at 30° C. The experiment is classed as biochemical. Here is the method:
(§9) A kinase reaction mixture was prepared containing 50 mM Tris-HCl pH=8, 10 mM MgCl2, 0.1 mM […], 1 mM DTT, 10 μM ATP, 0.025 μM biotinylated histone-H1 peptide substrate and 0.2 μCuries per well ^33P-γ-ATP (2000-3000 Ci/mmol). 70 μL of the kinase reaction mixture was dispensed into the well of a streptavidin coated FlashPlate™ (Cat. # SMP103, NEN, Boston, Mass.).
as §8
The HER2 construct consisted of a fusion of GST (Glutathione-S-Transferase), HIS6 Thrombin and the nucleotides encoding amino acids 679 to 1255 of HER-2 (Accession number M11730) (Proqinase, Freiburg, Germany). The assay used 200 ng of the N-terminal biotinylated peptide biotin-poly(GT) 4:1 (HER2) per well.
as §5

For experiment [4], the target named is T4, human CDK1 catalytic subunit and cyclin B (Homo sapiens, UniProt P06493).
T4 construct: purchased New England Biolabs, Beverly, Mass; 6020; host or cells: insect cells
T4 sequence (P06493 whole entry): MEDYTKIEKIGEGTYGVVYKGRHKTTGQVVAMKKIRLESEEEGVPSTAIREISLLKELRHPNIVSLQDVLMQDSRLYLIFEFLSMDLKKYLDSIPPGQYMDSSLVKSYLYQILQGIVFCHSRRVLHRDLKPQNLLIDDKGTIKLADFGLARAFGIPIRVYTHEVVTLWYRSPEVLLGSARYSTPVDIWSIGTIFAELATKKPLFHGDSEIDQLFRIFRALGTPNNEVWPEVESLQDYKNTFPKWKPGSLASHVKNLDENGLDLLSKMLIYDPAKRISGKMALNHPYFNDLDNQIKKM
T4 sequence (P14635 whole entry partner): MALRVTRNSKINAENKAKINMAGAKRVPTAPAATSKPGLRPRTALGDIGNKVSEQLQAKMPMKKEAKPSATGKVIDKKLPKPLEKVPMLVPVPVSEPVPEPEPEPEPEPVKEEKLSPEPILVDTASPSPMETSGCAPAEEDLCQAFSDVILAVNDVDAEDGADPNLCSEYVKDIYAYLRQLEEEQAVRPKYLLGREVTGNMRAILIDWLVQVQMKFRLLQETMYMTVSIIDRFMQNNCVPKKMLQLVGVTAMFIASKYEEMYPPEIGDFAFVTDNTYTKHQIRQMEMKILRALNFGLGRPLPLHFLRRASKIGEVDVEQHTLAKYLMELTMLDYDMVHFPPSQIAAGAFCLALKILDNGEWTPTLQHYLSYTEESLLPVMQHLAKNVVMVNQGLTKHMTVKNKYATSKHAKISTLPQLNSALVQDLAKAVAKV
In words: CDK1 screening assay (33P-ATP FlashPlate). Particulars: 10 μM ATP, 1 hr at 30° C. It is filed as biochemical. On the procedure:
as §9, §8
The CDK1 enzyme was isolated from insect cells expressing both the human CDK1 catalytic subunit (Accession number NM_001786) and its positive regulatory subunit cyclin B (New England Biolabs, Beverly, Mass.; Cat. #6020). The assay used 30 ng of the N-terminal biotinylated peptide biotin-[…]-amide (Cyclin dependent kinase 1) per well.
as §5
For a series of test concentrations, the IC50 was derived by graphing percent inhibition against the log of the concentrations tested for a given compound with results shown in Table 1.

For the next experiment, the system named is A375 malignant melanoma. As to the kind of experiment: Cell proliferation inhibition assay (14C-thymidine incorporation), A375. The experiment is classed as cell-based. The following applies: Homo sapiens, A-375, A375 cells.
Source text: as §1, §2, §3, §4, §5, §6

Experiment [5] deals with HeLa cervical adenocarcinoma. In words: Cell proliferation inhibition assay (14C-thymidine incorporation), HeLa. It is filed as cell-based. The following applies: Homo sapiens, HeLa cells.
Source text: as §1, §2, §3, §4, §5, §6

T1 sequence (O08775 786-1343): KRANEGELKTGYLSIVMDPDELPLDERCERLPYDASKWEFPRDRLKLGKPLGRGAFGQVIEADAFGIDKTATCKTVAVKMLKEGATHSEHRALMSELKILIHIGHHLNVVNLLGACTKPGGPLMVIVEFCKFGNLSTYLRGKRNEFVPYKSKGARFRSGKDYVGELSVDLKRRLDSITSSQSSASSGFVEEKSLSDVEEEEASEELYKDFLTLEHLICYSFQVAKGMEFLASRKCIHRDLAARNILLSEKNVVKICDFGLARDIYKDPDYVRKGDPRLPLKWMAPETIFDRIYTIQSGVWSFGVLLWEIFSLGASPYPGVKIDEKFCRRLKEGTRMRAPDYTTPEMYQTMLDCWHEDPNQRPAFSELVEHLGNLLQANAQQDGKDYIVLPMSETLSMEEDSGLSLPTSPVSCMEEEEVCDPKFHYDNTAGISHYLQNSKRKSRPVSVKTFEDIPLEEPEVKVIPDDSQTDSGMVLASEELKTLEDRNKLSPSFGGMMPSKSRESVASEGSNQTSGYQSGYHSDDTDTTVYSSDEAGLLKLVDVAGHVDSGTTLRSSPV
T3 sequence (P04626 679-1255): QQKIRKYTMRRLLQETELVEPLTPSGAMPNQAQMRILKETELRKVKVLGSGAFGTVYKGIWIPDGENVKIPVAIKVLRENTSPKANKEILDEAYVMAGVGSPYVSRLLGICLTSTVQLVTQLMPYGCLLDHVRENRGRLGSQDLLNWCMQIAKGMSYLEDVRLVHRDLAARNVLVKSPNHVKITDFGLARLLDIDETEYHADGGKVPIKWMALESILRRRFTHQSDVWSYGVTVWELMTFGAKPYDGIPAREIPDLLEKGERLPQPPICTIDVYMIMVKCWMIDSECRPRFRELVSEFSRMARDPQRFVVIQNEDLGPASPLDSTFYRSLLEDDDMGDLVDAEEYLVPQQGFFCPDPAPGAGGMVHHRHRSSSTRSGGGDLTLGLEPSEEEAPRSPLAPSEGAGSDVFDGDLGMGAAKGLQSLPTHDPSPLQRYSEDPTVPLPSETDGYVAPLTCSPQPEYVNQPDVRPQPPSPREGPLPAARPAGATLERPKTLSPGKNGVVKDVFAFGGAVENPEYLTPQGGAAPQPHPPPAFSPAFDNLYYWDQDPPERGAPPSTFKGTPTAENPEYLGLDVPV

Turning to `CCNCc1cncc(/C=C/c2c[nH]nc2-c2nc(C(F)(F)F)c[nH]2)c1` [Cpd 1, ethyl-(5-{2-[3-(4-trifluoromethyl-1H-imidazol-2-yl)-1H-pyrazol-4-yl]-vinyl}-pyridin-3-ylmethyl)-amine], the IC50 with HCT-116 colon carcinoma was 1.75 µM; in experiment [1], ~10 µM; in experiment [2], > 10 µM; in experiment [3] it was > 100 µM; in experiment [4] it was 0.018 µM; with A375 malignant melanoma it was 7.44 µM. This molecule showed an IC50 in experiment [5] of 3.18 µM.
Consider `N#Cc1c[nH]c(-c2n[nH]cc2/C=C/c2cccnc2)n1` [Cpd 3, 2-[4-(2-pyridin-3-yl-vinyl)-1H-pyrazol-3-yl]-1H-imidazole-4-carbonitrile], for which the IC50 with HCT-116 colon carcinoma was 70.7 µM; in experiment [1], > 10 µM; in experiment [2] it was > 10 µM; in experiment [3], > 100 µM; in experiment [4], 0.704 µM; with A375 malignant melanoma it was > 10 µM. Also, the IC50 in experiment [5] was > 10 µM.
`FC(F)(F)c1cnc(-c2n[nH]cc2C=Cc2cncc3ccccc23)[nH]1` [Cpd 4, 4-{2-[3-(4-trifluoromethyl-1H-imidazol-2-yl)-1H-pyrazol-4-yl]-vinyl}-isoquinoline]: the IC50 with HCT-116 colon carcinoma is 2.92 µM; in experiment [1], 3.06 µM; in experiment [2] it was 0.297 µM; in experiment [4] it was 0.113 µM; in the experiment on A375 malignant melanoma, 5.59 µM; in experiment [5], 3.58 µM.
Turning to `FC(F)(F)c1c[nH]c(-c2n[nH]cc2/C=C/c2cccnc2)n1` [Cpd 2, 3-{2-[3-(4-trifluoromethyl-1H-imidazol-2-yl)-1H-pyrazol-4-yl]-vinyl}-pyridine], the IC50 with HCT-116 colon carcinoma is 23.8 µM; in experiment [1] it was 29.4 µM; in experiment [2], 0.117 µM; in experiment [3] it was > 100 µM; in experiment [4], 0.483 µM; in the experiment with A375 malignant melanoma it was 46.5 µM. Also, in experiment [5], the IC50 was > 10 µM.
